# Test results taken from patent US8912184B1, “Therapeutic and diagnostic methods” (Alzheimer's Institute of America, Inc., priority 2010, dated 2014).
# Assays:
# cell lines = assay: NA rescue phenotype of cell lines treated with Nampt inhibitor (Nicotinic Acid Rescue Cytotoxicity Assays); format: cell-based
# Method: Cell lines were treated with a fixed dose of Exemplary Compound A and screened for NA rescue and Naprt1 expression by immunoblotting and qRT-PCR (Table 3). […] The 176 cell lines included 5 normal (non-cancerous) cell lines and 3 primary cell lines (italicized in the table), all of which rescued. Naprt1 was quantified by western blotting and qRT-PCR in 164 and 123 of the 176 cell lines, respectively. […] A statistically significant (p value <0.0001) correlation existed between a NA rescue phenotype and Naprt1 protein or mRNA expression levels.
# Additionally, Nicotinic Acid (NA) rescue of cytotoxicity of Nampt inhibitors was assessed by two distinct methods. In the first method, Nampt1 inhibitor cytotoxicity was evaluated in the presence and absence of exogenous nicotinic acid (NA) at a fixed concentration. […] Twenty four hours after cells were plated, the media was removed and replaced with media containing 10 μM nicotinic acid. Compounds were then immediately added. Cell viability was then assessed at 72 h.
# Cell viability was then assessed at 72 h.
# HCT116 xenograft tumors = assay: HCT116 human colon carcinoma murine xenograft, tumor growth/regression; format: in vivo, nu/nu mice
# Method: Exemplary Compound A was tested for its ability to deplete NAD levels and promote tumor regression in an HCT116 (i.e., a Naprt-proficient cancer) murine xenograft model. Three million HCT116 human colon carcinoma cells were injected subcutaneously into nu/nu mice to form tumors. Dosing was started ten days later when median tumor volume was >100 mm^3.
# Exemplary Compound A was administered orally to HCT116 tumor-bearing xenograft mice once (arrow) at the maximum tolerated dose of 75 mg/kg with or without simultaneous delivery of NA by Alzet pump (470 mg/kg/day for three days) (FIG. 8(b)).
# (§1) The effect of weekly administration of Exemplary Compound A on tumor growth was examined in murine HCT116 xenograft models (FIG. 8(c)). HCT116 tumor-bearing xenograft mice were orally dosed with 75 mg/kg Exemplary Compound A weekly for three cycles (arrows), resulting in a maximal tumor response of 10% regression on day 18.
# as §1, with “daily” for “weekly”, “8(d)).” for “8(c)).”, “10” for “75”, “21 days (black bar),” for “three cycles (arrows),”, “32%” for “10%”, “11.” for “18.”
# [1] = tested on: MIAPaCa-2 xenograft tumors; assay: MIAPaCa-2 human pancreatic carcinoma murine xenograft, tumor growth and survival; format: in vivo, mice; conditions: for animals having tumor volumes >1500 mm3 at end of study: Day 40
# Method: Exemplary Compound A was tested for its ability to suppress tumor growth, and promote survival in MIAPaCa-2 human pancreatic carcinoma (i.e., a Naprt-deficient cancer) murine xenograft models (FIG. 9). In these experiments, MIAPaCa-2 tumor-bearing mice with a median tumor volume of 202 mm^3 were orally dosed on days 1, 10 and 19 with either vehicle, 75 mg/kg Exemplary Compound A or 200 mg/kg Exemplary Compound A in combination with 400 mg/kg NA, or were orally dosed daily with 400 mg/kg NA for 21 days. See key below FIG. 9(b). NA was always administered one hour prior to dosing with Exemplary Compound A or vehicle.
# [2] = of 176 cell lines tested, fixed dose
compound,measurement,setting,value
"O=C(NCc1cccnc1)Nc1ccc(COc2ccccc2-c2ccccc2)cc1 [Exemplary Compound A, 1-{4-[(biphenyl-2-yloxy)methyl]phenyl}-3-(pyridin-3-ylmethyl)urea]",Rescuable by NA?,"cell lines; A172, glioma",no
same,Rescuable by NA?,"cell lines; COLO-205, colorectal",yes
same,Rescued by NA? (partial indicates <70% rescue),cell lines; DEL cells (lymphoma),Y (partial)
same,Rescuable by NA?,"cell lines; DMS-114, SCLC",yes
same,Rescued by NA? (partial indicates <70% rescue),cell lines; H4 cells (brain; neuroglioma),Y (partial)
same,Rescuable by NA?,"cell lines; HCC827, NSCLC",no
same,Rescuable by NA?,"cell lines; HCT-116, colorectal",yes
same,Rescuable by NA?,"cell lines; HT29, colorectal",yes
same,Rescuable by NA?,"cell lines; HT-1080, fibrosarcoma",no
same,Rescued by NA? (partial indicates <70% rescue),cell lines; Hepa1-6 cells (mouse; hepatoma),Y (partial)
same,Rescued by NA? (partial indicates <70% rescue),cell lines; MOLP-8 cells (myeloma),Y (partial)
same,Rescued by NA? (partial indicates <70% rescue),cell lines; MONO-MAC-6 cells (lymphocytic leukemia),Y (partial)
same,Rescuable by NA?,"cell lines; MiaPaCa2, pancreatic",no
same,Rescuable by NA?,"cell lines; NCI-H82, SCLC",yes
same,Rescuable by NA?,"cell lines; NCI-H460, NSCLC",no
same,Rescuable by NA?,"cell lines; NCI-H522, NSCLC",no
same,Rescued by NA? (partial indicates <70% rescue),cell lines; NCI-H596 cells (lung (NSCLC)),Y (partial)
same,Rescuable by NA?,"cell lines; NCI-H929, multiple myeloma",no
same,Rescuable by NA?,"cell lines; NCI-H1650, NSCLC",no
same,Rescuable by NA?,"cell lines; NCI-N87, gastric",yes
same,Rescued by NA? (partial indicates <70% rescue),cell lines; NOMO-1 cells (myelogenous leukemia),Y (partial)
same,Rescuable by NA?,"cell lines; OCI-Ly19, DLBCL (NHL)",yes
same,Rescuable by NA?,"cell lines; OPM-2, multiple myeloma",no
same,Rescuable by NA?,"cell lines; OVCAR-8, ovarian",yes
same,Rescued by NA? (partial indicates <70% rescue),cell lines; PFSK-1 cells (brain; malignant neuroectodermal tumor),Y (partial)
same,Rescued by NA? (partial indicates <70% rescue),cell lines; RPMI-8226 cells (myeloma),Y (partial)
same,Rescuable by NA?,"cell lines; SF-295, glioma",no
same,Rescued by NA? (partial indicates <70% rescue),cell lines; SKM-1 cells (myelogenous leukemia),Y (partial)
same,Rescued by NA? (partial indicates <70% rescue),cell lines; SR cells (lymphoma),Y (partial)
same,Rescued by NA? (partial indicates <70% rescue),cell lines; SU-DHL-4 cells (lymphoma),Y (partial)
same,Rescuable by NA?,"cell lines; SU-DHL-5, DLBCL (NHL)",no
same,Rescued by NA? (partial indicates <70% rescue),cell lines; SU-DHL-8 cells (lymphoma),Y (partial)
same,Rescued by NA? (partial indicates <70% rescue),cell lines; SUP-M2 cells (lymphoma),Y (partial)
same,Rescuable by NA?,"cell lines; U-87MG, glioma",no
same,Fraction not rescued by NA,"cell lines; bladder, 1 cell line tested",0%
same,Fraction not rescued by NA,"cell lines; brain, 30 cell lines tested",53%
same,Fraction not rescued by NA,"cell lines; breast, 7 cell lines tested",0%
same,Fraction not rescued by NA,"cell lines; colon, 6 cell lines tested",0%
same,Fraction not rescued by NA,"cell lines; fibrosarcoma, 5 cell lines tested",20%
same,Fraction not rescued by NA,"cell lines; gastric, 1 cell line tested",0%
same,Fraction not rescued by NA,"cell lines; kidney, 5 cell lines tested",20%
same,Fraction not rescued by NA,"cell lines; liver, 4 cell lines tested",25%
same,Fraction not rescued by NA,"cell lines; lung, NSCLC, 26 cell lines tested",27%
same,Fraction not rescued by NA,"cell lines; lung, small cell, 7 cell lines tested",14%
same,Fraction not rescued by NA,"cell lines; lymphocytic leukemia, 6 cell lines tested",17%
same,Fraction not rescued by NA,"cell lines; lymphoma, 16 cell lines tested",38%
same,Fraction not rescued by NA,"cell lines; melanoma, 3 cell lines tested",0%
same,Fraction not rescued by NA,"cell lines; myelogenous leukemia, 10 cell lines tested",10%
same,Fraction not rescued by NA,"cell lines; myeloma, 9 cell lines tested",44%
same,Rescued by NA? (partial indicates <70% rescue),"cell lines; no.11 cells (brain; glioma, anaplastic)",Y (partial)
same,number of cell lines completely rescued by NA,cell lines; [2],113
same,number of cell lines partially rescued by NA,cell lines; [2],16
same,number of cell lines that did not rescue with NA,cell lines; [2],47
same,Fraction not rescued by NA,"cell lines; osteosarcoma, 6 cell lines tested",50%
same,Fraction not rescued by NA,"cell lines; ovary, 3 cell lines tested",0%
same,Fraction not rescued by NA,"cell lines; pancreas, 7 cell lines tested",14%
same,cancer cell lines that failed to be rescued or were only partially rescued by NA,cell lines; panel of 147 cancer cell lines,38%
same,Fraction not rescued by NA,"cell lines; prostate, 2 cell lines tested",0%
same,"maximal tumor response, regression","HCT116 xenograft tumors; oral 10 mg/kg daily for 21 days, day 11",32%
same,"maximal tumor response, regression","HCT116 xenograft tumors; oral 75 mg/kg weekly for three cycles, day 18",10%
same,"tumor regression induced by single dose, in the presence of NA","HCT116 xenograft tumors; oral once 75 mg/kg, NA by Alzet pump 470 mg/kg/day for three days",completely prevented
same,survival,[1]; 200 mg/kg with 400 mg/kg NA,significantly increased survival
same,animals having tumor volumes >1500 mm3 at end of study,[1]; 200 mg/kg with 400 mg/kg NA,two
same,tumor growth inhibition (TGI) relative to vehicle,"[1]; oral 75 mg/kg days 1, 10, 19, day 19",53%
same,tumor growth inhibition (TGI),"[1]; oral 200 mg/kg with 400 mg/kg NA days 1, 10, 19, day 19",88%
same,animals having tumor volumes >1500 mm3 at end of study,[1]; other cohorts (incl. 75 mg/kg),eight
